Four substances from paper PMC8481536, “Wells–Dawson phosphotungstates as mushroom tyrosinase inhibitors: a speciation study” (Scientific Reports, 2021) can be followed below.

“And” between values parts separate entries of the source, which are not always exact repeats. Equal entries are not always repeated.

The nature of the data set: Speciation / hydrolytic stability of POT solutions in 50 mM Na-citrate buffer pH 6.8 by 31P-NMR and 183W-NMR. The format is physicochemical. To be noted: for 31P-NMR spectrum 96 h after preparation compared with 48 h: for [P2W12]: signal at −8.3 ppm of hexalacunary anion; for Share of unidentified / unstable solution intermediates: 31P-NMR integrated POT signals, aged solutions; for Share of monolacunary [α2-P2W17O61]10− in solution, 48 h after preparation / Share of monolacunary [α2-P2W17O61]10− in solution, fresh (1 h after preparation) / Share of unchanged educt anion in solution, after 48 h / Share of unchanged educt anion in solution, fresh (1 h): 31P-NMR peak integration; for Share of free phosphate in solution: fresh and 48 h aged ([P2W15]), after rearrangement ([P2W12]). How it is done: The detailed structural information about species under the respective experimental conditions is essential for understanding of POT activity. […] The concentration of all species was calculated based on ^31P-NMR peaks integration. Since the stock solutions of each Wells–Dawson POT was used up to three days after preparation and ^183W-NMR acquisition takes 60 h, ^31P-NMR spectra for all four solutions have been recorded 1 h and 48 h after preparation to check if speciation changes occur over time. […] In the solution of intact POT one hour after preparation 12% of [α2-P^V2W^VI17O61]^10− was detected based on ^31P-NMR peaks integration (Fig. 3A), whereas 48 h after dissolution the concentration of monolacunary anion increased to 69%. […] The ^183 W-NMR spectra of monolacunary [P2W17]^10− (Fig. S8A) and trilacunary [P2W15]^12− (Fig. S8C) are in agreement with ^31P-NMR data confirming the presence of only the monolacunary anion by 9 signals. The ^31P-NMR spectrum of fresh hexalacunary POT [P2W12]^12− (Fig. 3D) points to the presence of unhydrolyzed hexalacunary [H2P^V2W^VI12O48]^12− (72%) together with a low amount of monolacunary [α2-P^V2W^VI17O61]^10− (20%). After 48 h, the signals corresponding to hexalacunary [H2P^V2W^VI12O48]^12− and monolacunary [α2-P^V2W^VI17O61]^10− decreased to 9% and 3%, respectively, while two intense signals at − 7.5 and − 9.5 ppm appeared. […] The signal at − 7.5 ppm corresponds to [P^V8W^VI48O184]^40−, which was previously detected in solutions with a high amount of NH 4^+[37]. The presence of four different POTs in [P2W12]^12− 48 h after preparation renders the detection of all species’ signals in the ^183W-NMR spectrum impossible due to their low concentrations and the low abundancy (14%) of the ^183W isotope (Fig. S8D). The most intense signals at -190.3, -191.6 and -211.3 ppm correspond to three types of W ions in cyclic [P^V8W^VI48O184]^40−[43]. ^31P-NMR spectra recorded 96 h after preparation are identical to those recorded after 48 h for [P2W18]^6−, [P2W17]^10− and [P2W15]^12−. […] In every ^31P-NMR analysis, peaks for free phosphate were observed, indicating the release of HxPO4^x−3 from the POT clusters as a consequence of partial decomposition or rearrangement (Fig. 3). The weak signals between − 12 and − 7 ppm in the ^31P-NMR spectra (Fig. 3) with a total amount of no more than 19% of all POT signals, correspond to solution intermediates of unknown identity that have been reported previously.
^183W-NMR and ^31P-NMR were recorded with a Bruker FT-NMR spectrometer Avance Neo 500 MHz (Bruker, Rheinstetten, Germany) at 25 °C. Chemical shifts were measured relative to 1 M Na2WO4 and 85% H3PO4. ^183W-NMR samples were prepared in 2.7 mL Na-citrate buffer (50 mM, pH 6.8) with a POT concentration of 2 mM with or without 1 mM L-DOPA and measured in 10 mm tubes. The experimental time was ca. 60 h, with a standard pulse program at 20.836 MHz and a 63° flip angle with 1 s relaxation delay. Subsequently, ^31P-NMR was measured at 202.53 MHz.
^183W-NMR was performed in 50 mM Na-citrate buffer at pH 6.8 to obtain insight into the chemical speciation and hydrolytic stability of POTs. The peaks of the ^183W-NMR for [P2W18]^6− are shifted by approx. 4–5 ppm downfield relative to the assignment in the literature (Table S2). The slight shifting can be explained by different buffer conditions and ionic strength of the solution with regard to the reference data.
The ^183W-NMR speciation indicates the presence of [α2-P^V2W^VI17O61]^10− anions in [P2W18]^6−, [P2W17]^10−, [P2W15]^12− at pH 6.8 (Figs. S8, S12). For the ^183W-NMR of [P2W18]^6− at pH 4 two lines (1:2) were assigned (Fig. S7), whereas for the same compound at neutral pH a mixture of [α-P^V2W^VI18O62]^6− (1:2) and [α2-P^V2W^VI17O61]^10− (2:2:2:2:1:2:2:2:2) was observed (Fig. S8). Also, the β-isomer was detected at pH 4 and pH 6.8, respectively (Figs. S7, S8). […]

The mark [1] stands for this setting: 31P-NMR, 50 mM Na-citrate pH 6.8.

In the case of “K10[α2-P^V2W^VI17O61]·20H2O [[P2W17]^10−]”, the “Dominant POT species at pH 6.8 in Na-citrate buffer” value (“Dominant POT species” for short) was “Hx[α2-P^V2W^VI17O61]^(10−x)−” and the “Stable in Na-citrate buffer at pH 6.8” value is reported as “Yes”. Moreover, where the note is “50 mM Na-citrate pH 6.8”, the “31P-NMR spectrum 96 h after preparation compared with 48 h” value is “identical”; the “Share of unidentified / unstable solution intermediates” value is reported as 8%; the “Share of monolacunary [α2-P2W17O61]10− in solution, 48 h after preparation” value (“Share of monolacunary … 48 h after preparation” below) stood at 92%; the “Influence of the substrate L-DOPA on the POT solution (reduction / speciation)” value (“Influence … (reduction / speciation)” below) is on record as “no change in speciation”.

On to “(NH4)12[H2P^V2W^VI12O48]·24H2O [[P2W12]^12−]”, for which the “Dominant POT species” value is “[H2P^V2W^VI12O48]^12− + Hx[α2-P^V2W^VI17O61]^(10−x)− + [P^V2W^VI19O69(H2O)]^14− + [P^V8W^VI48O184]^40−” and the “Stable in Na-citrate buffer at pH 6.8” value is given as “No”. Besides, for the setting “50 mM Na-citrate pH 6.8”, the “31P-NMR spectrum 96 h after preparation compared with 48 h” value is reported as “disappeared completely”; the “Share of unidentified / unstable solution intermediates” value was 19%; the “Share of monolacunary … 48 h after preparation” value is reported as 3%; the “Share of monolacunary [α2-P2W17O61]10− in solution, fresh (1 h after preparation)” value (shortened to “Share of monolacunary … (1 h after preparation)”) was 20%. For the setting “50 mM Na-citrate pH 6.8”, the “Share of unchanged educt anion in solution, after 48 h” value came to 9%; the “Share of unchanged educt anion in solution, fresh (1 h)” value was 72%; the “Influence … (reduction / speciation)” value is “no change in speciation”. Moreover, under setting [1], the “Share of [P2W19O69(H2O)]14− in solution after 48 h” value was 22%, the “Share of [P8W48O184]40− in solution after 48 h” value is reported as 23% and the “Share of free phosphate in solution” value turned out to be 24%.

Consider K12[P^V2W^VI15O56]·24H2O [[P2W15]^12−], for which the “Dominant POT species” value is “Hx[α2-P^V2W^VI17O61]^(10−x)−” and the “Stable in Na-citrate buffer at pH 6.8” value is listed as “No”. Moreover, under “50 mM Na-citrate pH 6.8”, the “31P-NMR spectrum 96 h after preparation compared with 48 h” value was “identical”; the “Share of unidentified / unstable solution intermediates” value was 3% and 5%; the “Share of monolacunary … 48 h after preparation” value was 62% and 61%; the “Share of monolacunary … (1 h after preparation)” value is 62%. Also, the “Influence … (reduction / speciation)” value (50 mM Na-citrate pH 6.8) is recorded as “no change in speciation”. Moreover, where the note is “50 mM Na-citrate pH 6.8, listed as [P^V2W^VI15O56]^12−”, the “Share of monolacunary … (1 h after preparation)” value is reported as ~ 62%. Besides, under setting [1], the “Share of free phosphate in solution” value is 35%.

As to “K6[α/β-P^V2W^VI18O62]·14H2O [[P2W18]^6−]”, the “Dominant POT species” value is “Hx[α2-P^V2W^VI17O61]^(10−x)−” and the “Stable in Na-citrate buffer at pH 6.8” value was “No”. Where the note is “50 mM Na-citrate pH 6.8”, the “31P-NMR spectrum 96 h after preparation compared with 48 h” value is reported as “identical”; the “Share of unidentified / unstable solution intermediates” value was found to be 9%; the “Share of monolacunary … 48 h after preparation” value is given as 69%; the “Share of unchanged educt anion in solution, after 48 h” value came to 15%. Under “50 mM Na-citrate pH 6.8”, the “Share of unchanged educt anion in solution, fresh (1 h)” value is reported as 88% and the “Influence … (reduction / speciation)” value is listed as “turned blue”. Moreover, the “Share of monolacunary … 48 h after preparation” value (50 mM Na-citrate pH 6.8, listed as [α/β-P^V2W^VI18O62]^6−) is recorded as ~ 69%. Further, under “Na-citrate buffer pH 6.8, room temperature, 183W-NMR and 31P-NMR”, the “Sample composition after 28 days storage” value is reported as “low amounts of the α-isomer were found, but no β-isomer was detected”.
